Experimental data reported in patent US12194082B2, “Compositions and methods for treatment of homocystinuria” (THE REGENTS OF THE UNIVERSITY OF COLORADO, priority 2016, dated 2025).

Key:
[1] = tested on: homocysteine, cystathionine, cysteine; assay: Pharmacodynamics after a single dose of PEGylated htCBS C15S in HO mice; assay type: in vivo
Experimental: Plasma metabolites homocysteine, cystathionine and cysteine were determined by stable-isotope-dilution liquid chromatography mass spectrometry as previously described in (Allen et al., 1993, Metabolism, 42: 1448-1460). Measurements of total non-protein bound homocysteine and other aminothiols as well as of amino acids in tissue were performed as described in (Maclean et al., 2010b. Mol. Genet. Metab. 101, 153-162). Metabolites were determined by stable-isotope-dilution liquid chromatography mass spectrometry.
For 20NHS PEG-htCBS C15S, HO mice were administered SQ a dose of 5, 10 or 15 mg/kg dose or were administered IV a dose of 10 mg/kg. For 400MA-htCBS C15S, HO mice received a single dose of 10 mg/kg either SC or IV of one of the three forms: (i) a mixture of all species, where no separation of individual forms has been attempted (mix), (ii) a homoPEGylated specie (Peak 1), and (iii) a hetero/hemiPEGylated species (Peak 2).
Both male and female HO mice were used in this example, and each group contained 3 to 4 mice. Two groups of mice designated “A” and “B” were used for each route of administration to minimize the blood volume taken from any one mouse. For SC administration, blood was collected from group A at 0.5, 3, 24, and 72 hours post-injection and from group B at 1, 6, 48, and 96 hours post-injection. […]

[2] = tested on: KO mice; assay: Survival of KO mice treated with PEGylated htCBS C15S conjugates; assay type: in vivo, mouse
Experimental: A Kaplan Meyer survival curve was plotted of KO mice injected three times weekly with 7.5 mg/kg htCBS C15S PEGylated with ME-200MA0B (n=24), ME-400MA (n=31=13F+18M), or ME-200GS (n=28=14F+14M), and a group of KO mice (n=44) that was injected with PBS as a control. Lactating mothers were maintained on betaine water, and after weaning, the pups (day 21) were put on regular water with no betaine. The ability of the injected enzyme to rescue KO pups was tested.
After an initial 35 days (5 weeks) long treatment to prevent neonatal lethality of KO mice, the KO mice treated with 20NHS PEG-htCBS C15S were divided into two groups. One group (5 W) stopped receiving any treatment apart from the initial one, while the other group (CONT) continued with the same regimen for up to 120 days of age (7.5 mg/kg, SC, 3× a week).

[3] = tested on: Hcy, Cth, Cys, and Met; assay: Plasma metabolites in I278T mice of the DEXA study; assay type: in vivo; conditions: continuous long-term administration
Experimental: Plasma metabolites were determined in the same mice/groups as described above and compared to each other. The left bar represents the level of metabolite for +/− healthy controls, and the middle bar represents the level of metabolite for −/− affected controls. The levels of each metabolite in 20NHS PEG-htCBS C15S-treated mice is represented by the right bar.

[4] = tested on: homocysteine, cystathionine, and cysteine; assay: Long-term administration of PEGylated htCBS C15S conjugates in HO mice: plasma metabolites; assay type: in vivo; conditions: 7.5 mg/kg/day SC, 5 daily injections per bout
Experimental: In one set of experiments, htCBS C15S PEGylated with either ME-200MA0B, ME-200GS, GL4-400MA, or ME-400MA was evaluated. Six groups of HO mice were used to conduct these studies: two groups received 200MA0B PEG-htCBS C15S (Groups 1 and 3), one group received 20NHS PEG-htCBS C15S (Group 4), one group received GL4-400MA PEG-htCBS C15S (Group 5), and two groups received 400MA PEG-htCBS C15S (Group 6 and 7). Both male and female HO mice were used (total n=6 to 8 mice per group) in these studies.
For Group 1, the mice received 2 bouts of 5 daily subcutaneous injections of 200MA0B PEG-htCBS C15S on days 1, 2, 3, 4, and 5 (week 1) and days 15, 16, 17, 18, and 19 (week 3). The dose for this experiment was 5 mg/kg/day. A saline control group (Group 2) was included in this experiment. All other groups received 3 bouts of 5 daily subcutaneous injections on days 1, 2, 3, 4, and 5 (week 1); days 15, 16, 17, 18, and 19 (week 3); and days 29, 30, 31, 32 and 33 (week 5). The dose for these experiments was 7.5 mg/kg/day.
In a separate set of experiments, htCBS C15S PEGylated with ME-200MA0B or ME050GS was evaluated. Two groups of male and female HO mice (1M/5F) received 3 bouts of 5 daily subcutaneous injections of either 200MA0B PEG-htCBS C15S (Group 8) or 050GS PEG-htCBS (Group 9) on days 1, 2, 3, 4, and 5 (week 1); days 15, 16, 17, 18, and 19 (week 3); and days 29, 30, 31, 32 and 33 (week 5). The dose was 7.5 mg/kg/day.
In all sets of experiments, each 5-day dosing cycle was followed by a 10-day “washout period”. Blood was sampled using a submandibular lancet on Monday, Wednesday, and Friday of the dosing weeks (1, 3, and 5) and on the first day (Monday) of each 10-day washout period. All blood sampling procedures and subcutaneous injections were conducted at 3 P.M. to avoid artifacts due to diurnal variations. On days where both blood sampling and injection were conducted the blood sampling procedure was conducted prior to enzyme administration.
The pharmacodynamic response in HO mice to each PEGylated htCBS C15S conjugate was assessed for each bout of dosing by quantitating plasma levels of metabolites homocysteine, cystathionine, and cysteine, which are associated with the transsulfuration pathway, at baseline and after treatment. Quantification was performed by stable-isotope-dilution liquid chromatography mass spectrometry (LC/MS) as described in Example 1. The maximal percent change of homocysteine, cystathionine, and cysteine was calculated compared to baseline values for each dose week.

20NHS PEG-htCBS C15S: htCBS C15S PEGylated with ME-200GS PEG (20 kDa linear NHS ester-activated PEG)
single dose producing maximal efficacy response ([1]; SC, HO mouse model): 5 mg/kg
plasma levels of Hcy over time ([1]; single 10 mg/kg SC dose): remain decreased up to 72 hours
survival ([2]; 7.5 mg/kg three times weekly, day 21): about 97%
survival of all mice ([2]; continuous 7.5 mg/kg SC 3x a week up to 120 days of age): at least 119 days
survival at 119 days of age ([2]; treatment terminated after initial 35 days): about 85%
Hcy, Cth, Cys and Met plasma levels vs untreated −/− mice [3]: significantly improved
cystathionine, Percent Increase at Peak, Week 1 [4]: 676%
cystathionine, Percent Increase at Peak, Week 3 [4]: 492%
cystathionine, Percent Increase at Peak, Week 5 [4]: 432%
cysteine, Percent increase at Peak, Week 1 [4]: 59%
cysteine, Percent increase at Peak, Week 3 [4]: 61%
cysteine, Percent increase at Peak, Week 5 [4]: 51%
total Hcy, Percent Decrease at Trough, Week 1 [4]: 77%
total Hcy, Percent Decrease at Trough, Week 3 [4]: 70%
total Hcy, Percent Decrease at Trough, Week 5 [4]: 66%
total Hcy, Percent Decrease at Trough, Week 1 ([4]; listed as ME-200GS): 77%
total Hcy, Percent Decrease at Trough, Week 3 ([4]; listed as ME-200GS): 70%
total Hcy, Percent Decrease at Trough, Week 5 ([4]; listed as ME-200GS): 66%
